Tests used:
[1] = Plasma pharmacokinetics of TRA, ponatinib and metabolites after a single oral 45-mg [14C]ponatinib dose; conditions: for time postdose at which C max / maximal levels in plasma were observed: single oral 45-mg dose, M23 by radiochromatography; for concentration at 144 h: oral
Experimental: The subject release criterion was defined as follows: the combined urine and fecal radioactivity excretion for two consecutive days should fall below 1% of the dose administered.
Detailed procedures on sample collection, storage, and shipment are described in Online Resource 1. […] Fecal homogenates were prepared by adding water (four times the feces weight) and homogenizing.
TRA analysis was carried out at ABC Laboratories. The radioactivity in plasma (duplicate per time point) and urine samples (triplicate per time point) was quantitated by direct counting in a Beckman LS6000SC or LS6500 liquid scintillation counter (PerkinElmer Life and Analytical Sciences, Boston, MA, USA). Whole blood (duplicate per time point) and fecal homogenate (triplicate per time point) samples were oxidized, and the resultant ^14CO2 was trapped in Carbosorb (Calgon Carbon Corporation, Pittsburgh, PA, USA) in combination with Permafluor, followed by liquid scintillation counting to determine the radioactivity. Individual samples were counted for 5 min for whole blood and fecal matrices, and 10 min for plasma and urine matrices. Predose blood, plasma, urine, and feces samples served as respective control samples to determine and subtract the background radioactivity in the analysis.
M14 was quantitated using a different LC/MS/MS method (Online Resource 2). The pharmacokinetic analysis was carried out using WinNonlin® v6.4 (Pharsight Corp., Mountain View, CA, USA).
Aliquots of 30 µl of calibration standards, quality controls, and incurred plasma samples were transferred into a 96-well plate. Then 150 µl of ice-cold acetonitrile containing 50 ng/ml of AP30376 (d6-AP24600, internal standard) were added. The 96-well plate was vortexed for 10 min and then centrifuged at 4750 rpm for 20 min at 4°C. 100 µl aliquots of the supernatants were transferred into another 96-well plate and the samples were analyzed by liquid chromatography tandem mass spectrometry.

BCR–ABL [2] = biological target: T1, BCR–ABL (Homo sapiens, UniProt P00519+P11274); assay: In vitro cellular activity screen against BCR–ABL (data not shown); assay type: cell-based
T1 sequence (P00519 229-512 limits assumed): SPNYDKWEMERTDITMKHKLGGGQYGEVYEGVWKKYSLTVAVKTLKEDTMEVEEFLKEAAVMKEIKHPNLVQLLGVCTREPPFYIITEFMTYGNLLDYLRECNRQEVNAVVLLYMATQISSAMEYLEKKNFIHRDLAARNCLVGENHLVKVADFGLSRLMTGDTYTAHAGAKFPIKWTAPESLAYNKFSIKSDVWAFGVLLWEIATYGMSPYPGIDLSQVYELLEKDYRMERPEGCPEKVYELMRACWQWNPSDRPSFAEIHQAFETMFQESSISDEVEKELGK

[3] = Metabolite characterization by LC/MS/MS in human plasma, urine, and feces; conditions: human plasma, urine, feces; LC/MS/MS
Experimental: The remaining eluate stream of 0.16 mL/min from the HPLC runs was diverted to the inlet of the mass spectrometer. The samples were analyzed using a heated electrospray ionization probe. Full-scan positive ion MS data were collected using Finnigan Exactive (MS^1) or Q-Exactive (MS^1 and MS^2) mass spectrometers (Thermo Fisher Scientific Inc.) Exact conditions are described in the Online Resource 3.
Finnigan Exactive or Q-Exactive mass spectrometers (Thermo Fisher Scientific Inc., San Jose, CA) were used to collect full scan MS^1 and MS^2 data.

[4] = Metabolite profiling of urine (HPLC-radiochromatography); assay type: in vivo, human; conditions: 0–72 h pool
Experimental: Predose and 0–72-h urine samples (grand pool of all six subjects) were prepared. Urine samples (5 mL) were centrifuged, the supernatant was transferred to a 15-mL polypropylene tube and placed on ice; the residues were extracted with 1 mL of methanol and the methanol extracts were added to the supernatants. The combined extracts were evaporated under nitrogen and reconstituted in 0.2 mL of methanol. A 0.010-mL aliquot of the reconstituted solution was removed for determination of radioactivity, and the remainder was transferred to HPLC vials and stored at −80 °C.
(§1) A Finnigan Surveyor HPLC system (Thermo Fisher Scientific Inc., San Jose, CA, USA), consisting of an LC pump plus an autosampler and a UV–Vis plus detector, was used mostly for profiling (except the post-24-h plasma samples, which were analyzed using a Dionex HPLC system). A Phenomenex® Gemini® C18, 5-μm, 3.0 × 100-mm column (Phenomenex Inc., Torrance, CA, USA) was used along with a C-12 guard column (4 × 2 mm). LC conditions were as follows: solvent A was 10 mM ammonium bicarbonate in water (pH 10.0) and solvent B was 100% methanol and the flow rate was 0.8 mL/min. The following gradient was employed (B%): 0–5 min (20%), 32 min (42%), 33 min (60%), 55 min (70%), 56–60 min (95%), and 62–70 min (20%).
(§2) Reconstituted solvent extracts (0.050–0.10 mL) of plasma, urine, or feces were injected onto the HPLC column. The post-column eluate was split after UV detection into two streams (0.64 and 0.16 mL/min). The 0.64-mL stream was diverted to a fraction collector (Gilson FX 204; Gilson Medical Electronics, Middleton, WI, USA) to be collected in 96-well plates at 0.16 min/well (ScintiPlates; PerkinElmer Life Sciences, Shelton, CT, USA), and the 0.16-mL stream was directed to the mass spectrometer. The solvent in the 96-well plates was removed at 40 °C using a Genevac evaporator (Genevac, Inc., Stone Ridge, NY, USA).
(§3) The radioactivity counts per minute (CPM) in each well was determined using a MicroBeta scintillation counter (PerkinElmer Life and Analytical Sciences). The resulting CPM vs. time data were processed using Excel (Microsoft Corporation, Seattle, WA, USA). The CPM in each well was background-subtracted (using the average CPM values of the blank region of the HPLC run). Radiochromatographic profiles were obtained by plotting the resulting net CPM values against time after injection. Radioactive peaks in the chromatographic profiles were identified, and the radioactivity in each peak was summed and reported as a percentage of TRA in the HPLC run.

BCR–ABL [5] = assay: In vitro kinase activity screen against BCR–ABL (data not shown); assay type: biochemical
[6] = Metabolite profiling of plasma (HPLC-radiochromatography); assay type: in vivo, human; conditions: % of TRA
Experimental: For each subject, a 0–24 h pooled plasma sample was prepared according to the scheme outlined in the literature. In addition, several pooled plasma samples across all subjects were prepared at these time points: 5, 10, 12, […], and 48 h, and every 24 h thereafter until 240 h.
All pooled 0–24, 5, 10, 12, and 24 h plasma samples were processed as follows. […] The samples were vortexed for 30 min and centrifuged at 4500g at 4 °C for 6 min. The supernatants were transferred into new polypropylene tubes and kept on ice. The resulting plasma protein pellets were extracted twice to ensure good recovery and the extracts were combined. The combined extracts were loaded onto Ostro sample preparation plates (Waters Corporation, Milford, MA, USA), dried, eluted with 0.2 mL of cold acetonitrile, and all eluates were collected and evaporated under nitrogen (TurboVap LV; Caliper Life Sciences, Hopkinton, MA, USA). The dry residues were reconstituted in 0.1 mL of methanol, and a 0.005-mL aliquot was removed for determination of radioactivity. The remainder of the supernatants were transferred to high-performance liquid chromatography (HPLC) vials and stored at −80 °C until analysis.
Pooled post-24-h plasma samples were extracted using a slightly modified procedure. […] Appropriate volumes of formic acid were added to achieve a final concentration of 1%. Then, the samples were warmed to 37 °C and loaded to preconditioned Oasis HLB cartridges (Waters Corporation, Milford, MA, USA). These columns were then washed with water, dried under vacuum, and eluted with methanol. The eluates were collected and evaporated under nitrogen. The dry residues were reconstituted in 0.1 mL of methanol, and a 0.005-mL aliquot was removed for determination of radioactivity. The remainder of the supernatants were transferred to HPLC vials and stored at −80 °C until analysis.
as §1, §2, §3

SMILES | time postdose at which C max / maximal levels in plasma were observed ([1]; human plasma) | concentration at 144 h ([1]; male, human, plasma, 45 mg) | activity against BCR–ABL, cellular activity screen (BCR–ABL [2]) | Matrix (in which the metabolite was found) [3] | activity against BCR–ABL, kinase screen (BCR–ABL [5]) | % Distribution in plasma ([6]; 0–24 h pooled plasma) | % Distribution in plasma ([6]; 5 h pooled plasma) | % Distribution in plasma ([6]; 10 h pooled plasma) | % Distribution in plasma ([6]; 12 h pooled plasma) | % Distribution in plasma ([6]; 36 h pooled plasma) | % Distribution in plasma ([6]; 48 h pooled plasma) | % Distribution in plasma ([6]; 72 h pooled plasma) | % Distribution in plasma ([6]; 96 h pooled plasma) | also measured
Cc1ccc(C(=O)O)cc1C#Cc1cnc2cccnn12 [M14, 3-(imidazo[1,2-b]pyridazin-3-ylethynyl)-4-methylbenzoic acid] | 2 to 12 h | < 2.4 nM | inactive | P, U | inactive | 14.9% | 29.0% | 10.8% | 12.8% | 2.4% | – (“–” values less than 0.5% are not reported) | – (“–” values less than 0.5% are not reported) | – (“–” values less than 0.5% are not reported) | plasma level at 144 h postdose ([1]; human plasma, 144 h postdose): at or below detectable limits; AUC(0-inf) ([1]; male, human, plasma, po, 45 mg): 0.181 µM·h; AUC(0-t) ([1]; male, human, plasma, po, 45 mg): 0.169 µM·h; Cmax ([1]; male, human, plasma, po, 45 mg): 5 nM; Tmax ([1]; male, human, plasma, po, 45 mg): 5 h; half-life ([1]; male, human, plasma, po, 45 mg): 33.7 h; % of total radioactive dose [4]: 0.3%; % Distribution in matrix ([4]; % of urinary TRA): 5.6%
Cc1ccc(C(=O)Nc2ccc(C(=O)O)c(C(F)(F)F)c2)cc1C#Cc1cnc2cccnn12 [M23, 4-(3-(imidazo[1,2-b]pyridazin-3-ylethynyl)-4-methylbenzamido)-2-(trifluoromethyl)benzoic acid] | 36 h | < 3 nM | inactive | P, U, F | inactive | 7% | – (“–” values less than 0.5% are not reported) | 3.4% | 2.4% | 3.9% | 5.4% | 10.7% | 6.0% | –

From PMC5344956 (Cancer Chemotherapy and Pharmacology, 2017)
